Experimental findings from ChEMBL document CHEMBL4342421, “Current scenario of tetrazole hybrids for antibacterial activity” (Eur J Med Chem, 2019) are described below.

In one assay the test system is Streptococcus agalactiae. The assay is described as follows: Antimicrobial activity against Streptococcus agalactiae 55118 assessed as zone of inhibition at 100 ug/ml after 24 hrs by disc diffusion method. Type of assay: functional. The note with it: Streptococcus agalactiae, 55118, 24 h; read-out: IZ.
A further assay relates to Klebsiella pneumoniae. The experiment in a line: Antimicrobial activity against Klebsiella pneumoniae ATCC 700603 assessed as zone of inhibition at 100 ug/ml after 24 hrs by disc diffusion method. The note with it: ATCC 700603, 24 h, read-out: IZ. Type of assay: functional. On the technique in general: A growth-free zone around the sample is the usual read-out of agar diffusion tests.

The test system of assay [1] is Staphylococcus aureus. The assay is described as follows: Antimicrobial activity against Staphylococcus aureus ATCC 25923 assessed as zone of inhibition at 100 ug/ml after 24 hrs by disc diffusion method. The note with it: ATCC 25923, 24 h, read-out: IZ. It counts as functional.
The subject of another assay is Salmonella typhimurium. The assay is described as follows: Antimicrobial activity against Salmonella typhimurium. Type of assay: functional, Salmonella enterica subsp. enterica serovar Typhimurium. The note with it: Salmonella enterica.
The subject of assay [2] is Bacillus subtilis. The experiment in a line: Antimicrobial activity against Bacillus subtilis. It counts as functional.
For a further assay, the system named is PANC-1. The experiment in a line: Growth inhibition of human PANC1 cells. Type of assay: functional.
Another assay has as its system MDA-MB-231. The experiment in a line: Growth inhibition of human MDA-MB-231 cells. It counts as functional.
Assay [3] concerns Escherichia coli. The assay is described as follows: Antimicrobial activity against Escherichia coli. It counts as functional.
The subject of another assay is SiHa. The experiment in a line: Growth inhibition of human SiHa cells. It counts as functional.
The subject of a further assay is Micrococcus luteus. The assay is described as follows: Antibacterial activity against Micrococcus luteus. It counts as functional.
The test system of the next assay is Priestia megaterium. The experiment in a line: Antimicrobial activity against Bacillus megaterium. Type of assay: functional.
Assay [4] deals with Escherichia coli. The experiment in a line: Antimicrobial activity against Escherichia coli assessed as zone of inhibition at 50 ug/ml. Type of assay: functional. The note with it: read-out: IZ.
In the next assay the test system is Pseudomonas aeruginosa. The experiment in a line: Antimicrobial activity against Pseudomonas aeruginosa. It counts as functional.
In assay [5] the test system is Staphylococcus aureus. The assay is described as follows: Antimicrobial activity against Staphylococcus aureus assessed as zone of inhibition at 50 ug/ml. Type of assay: functional. The note with it: read-out: IZ.
The test system of assay [6] is Candida albicans. The assay is described as follows: Antifungal activity against Candida albicans. It counts as functional.
Assay [7] has as its system Aspergillus niger. The experiment in a line: Antifungal activity against Aspergillus niger. Type of assay: functional.
Assay [8] deals with Candida albicans. The assay is described as follows: Antifungal activity against Candida albicans assessed as zone of inhibition at 50 ug/ml. Type of assay: functional. The note with it: read-out: IZ.
Assay [9] relates to Staphylococcus aureus. The assay is described as follows: Antimicrobial activity against Staphylococcus aureus. It counts as functional.
For assay [10], the system named is Aspergillus niger. The assay is described as follows: Antifungal activity against Aspergillus niger assessed as zone of inhibition at 50 ug/ml. Type of assay: functional. The note with it: read-out: IZ.
The test system of assay [11] is Candida albicans. The assay is described as follows: Antifungal activity against Candida albicans MTCC 277 after 48 hrs by NCCLS protocol based method. It counts as functional. The note with it: MTCC 277, 48 h.
In assay [12] the test system is Escherichia coli. The experiment in a line: Antimicrobial activity against Escherichia coli ATCC 25922 after 48 hrs by NCCLS protocol based method. Type of assay: functional. The note with it: ATCC 25922, 48 h.
The subject of assay [13] is Bacillus subtilis. The experiment in a line: Antimicrobial activity against Bacillus subtilis NCIM 2250 after 48 hrs by NCCLS protocol based method. It counts as functional. The note with it: NCIM 2250, 48 h.
Assay [14] deals with Aspergillus niger. The experiment in a line: Antifungal activity against Aspergillus niger NCIM 545 after 48 hrs by NCCLS protocol based method. Type of assay: functional. The note with it: NCIM 545, 48 h.
Another assay relates to Candida tropicalis. The experiment in a line: Antifungal activity against Candida tropicalis. It counts as functional.
The test system of the next assay is Nakaseomyces glabratus. The assay is described as follows: Antifungal activity against Candida glabrata. It counts as functional.

≈ marks a conversion by molar mass, not a printed value. Where only a bound is given, the exact number is not on record here.

As for `CCCCn1nnnc1Sc1c(OC)nc(N)nc1OC`, the zone of inhibition at 100 µg/mL in the assay with Streptococcus agalactiae, in the assay on Klebsiella pneumoniae and in the assay on Staphylococcus aureus [1] was 10 to 24 mm throughout.
A word on the MIC: it is the smallest concentration in the dilution series that meets the test's criterion for growth inhibition. The term GI50 denotes the concentration that inhibits growth by half. Consider `O=C(O)c1cn(C2CC2)c2cc(N3CCN(C(=O)CCSc4nnnn4-c4ccc(C(F)(F)F)cc4)CC3)c(F)cc2c1=O`, for which the MIC in the assay on Salmonella typhimurium, against Bacillus subtilis [2], against Escherichia coli [3], against Micrococcus luteus and with Priestia megaterium was 15.6 µg/mL (≈ 24.7 µM) in each case. Also, the GI50 with PANC-1, with MDA-MB-231 and with SiHa was no more than 1000 nM in each case.
Take `COc1nc(N)nc(OC)c1Sc1nnnn1CC1CCCCC1`: the zone of inhibition at 100 µg/mL in the assay with Streptococcus agalactiae, in the assay on Klebsiella pneumoniae and with Staphylococcus aureus [1] was 10 to 24 mm throughout.
On to `O=C(O)c1cn(C2CC2)c2cc(N3CCNCC3)c(F)cc2c1=O` [CIPROFLOXACIN], for which the minimum inhibitory concentration (MIC) against Salmonella typhimurium, in the assay with Pseudomonas aeruginosa, against Escherichia coli [3], against Candida albicans [6], in the assay with Micrococcus luteus and with Aspergillus niger [7] was 25 to 50 µg/mL (≈ 75.4 to 151 µM) each time. Further, the MIC in the assay on Priestia megaterium and with Staphylococcus aureus [9] was 25 to 50 µg/mL (≈ 75.4 to 151 µM) throughout. Besides, the zone of inhibition at 50 µg/mL with Escherichia coli [4], with Staphylococcus aureus [5], in the assay on Candida albicans [8] and with Aspergillus niger [10] was 19 to 20 mm each time.
In the case of `O=C(O)c1cn(C2CC2)c2cc(N3CCN(C(=O)CCSc4nnnn4-c4ccccc4)CC3)c(F)cc2c1=O`, the minimal inhibitory concentration (MIC) with Salmonella typhimurium, against Bacillus subtilis [2], with Escherichia coli [3], in the assay on Micrococcus luteus and with Priestia megaterium was 15.6 µg/mL (≈ 27.7 µM) throughout. For the same molecule, the GI50 in the assay with PANC-1, with MDA-MB-231 and with SiHa was no more than 1000 nM throughout.
As to `COc1nc(N)nc(OC)c1Sc1nnnn1Cc1ccccc1`, the zone of inhibition at 100 µg/mL in the assay with Streptococcus agalactiae, in the assay with Klebsiella pneumoniae and in the assay with Staphylococcus aureus [1] was 10 to 24 mm each time.
Take `CCn1cc(C(=O)O)c(=O)c2cnc(N3CCN(C(=O)CCSc4nnnn4-c4ccc(Br)cc4)CC3)nc21`: the GI50 in the assay on PANC-1, in the assay on MDA-MB-231 and in the assay with SiHa was 70 to 220 nM in each case.
For the molecule `COC1=CC(=O)C[C@@H](C)[C@]12Oc1c(Cl)c(OC)cc(OC)c1C2=O` [GRISEOFULVIN], the MIC with Candida albicans [11], in the assay with Escherichia coli [12], with Bacillus subtilis [13] and with Aspergillus niger [14] was 10 µg/mL (≈ 28.3 µM) throughout. Also, the zone of inhibition at 50 µg/mL in the assay with Escherichia coli [4], with Staphylococcus aureus [5], in the assay on Candida albicans [8] and with Aspergillus niger [10] was 21 to 24 mm each time.
For the molecule `O=C(O)c1cn(C2CC2)c2cc(N3CCN(C(=O)CCSc4nnnn4Cc4ccccc4)CC3)c(F)cc2c1=O`, the MIC in the assay with Salmonella typhimurium, against Bacillus subtilis [2], in the assay on Escherichia coli [3], in the assay with Micrococcus luteus and against Priestia megaterium was 15.6 µg/mL (≈ 27 µM) in each case. Further, the GI50 with PANC-1, in the assay with MDA-MB-231 and in the assay on SiHa was no more than 1000 nM throughout.
As for `COc1nc(N)nc(OC)c1Sc1nnnn1CC1CC1`, the zone of inhibition at 100 µg/mL in the assay on Streptococcus agalactiae, with Klebsiella pneumoniae and in the assay with Staphylococcus aureus [1] was 10 to 24 mm throughout.
`O=C(O)c1cn(C2CC2)c2cc(N3CCN(C(=O)CCSc4nnnn4-c4ccc(F)c(F)c4F)CC3)c(F)cc2c1=O`: the MIC in the assay with Salmonella typhimurium, with Bacillus subtilis [2], with Escherichia coli [3], in the assay on Micrococcus luteus and with Priestia megaterium was 15.6 µg/mL (≈ 25.3 µM) in each case. Further, the GI50 in the assay on PANC-1, in the assay on MDA-MB-231 and with SiHa was no more than 1000 nM each time.
Turning to `Cc1cc2c(=O)c(OCc3nnn[nH]3)c(-c3ccc(F)cc3)oc2cc1Cl`, the MIC against Candida tropicalis was in the range of 12.5 to 25 µg/mL (≈ 32.3 to 64.6 µM); with Nakaseomyces glabratus, 12.5 to 25 µg/mL (≈ 32.3 to 64.6 µM); with Pseudomonas aeruginosa it was 50 to 400 µg/mL (≈ 129 to 1030 µM); in the assay with Bacillus subtilis [2], 50 to 400 µg/mL (≈ 129 to 1030 µM); with Escherichia coli [3], 50 to 400 µg/mL (≈ 129 to 1030 µM); in the assay on Candida albicans [6], 12.5 to 25 µg/mL (≈ 32.3 to 64.6 µM). This molecule also returned an MIC against Staphylococcus aureus [9] of 50 to 400 µg/mL (≈ 129 to 1030 µM).
Regarding `O=C(O)c1cn(C2CC2)c2cc(N3CCN(C(=O)CCSc4nnnn4-c4ccc(Br)cc4)CC3)c(F)cc2c1=O`, the MIC against Salmonella typhimurium, against Bacillus subtilis [2], against Escherichia coli [3], against Micrococcus luteus and in the assay with Priestia megaterium was 15.6 µg/mL (≈ 24.3 µM) throughout. In addition, the GI50 in the assay with PANC-1, in the assay on MDA-MB-231 and with SiHa was no more than 1000 nM each time.
